{"source": "patent US10344065B2", "about": "“Method for treating Alzheimer's disease and method for downregulating protein aggregation in brain” (National Cheng Kung University, priority 2017, dated 2019)", "system": "3×Tg mice", "assay": "Novel object recognition test", "format": "in vivo, mouse", "conditions": "vs sham", "procedure": "All experiments were carried out in accordance with the National Institutes of Health Guidelines for animal research (Guide for the Care and Use of Laboratory Animal) and approved by the National Cheng Kung University Institutional Animal Care and Use Committee. The 3×Tg mice (B6; 129-Psen1tm1Mpm Tg[APPSwe, tauP301L]1Lfa/Mmjax), were obtained from the Jackson Laboratory (Bar Harbor, […], USA) and housed in a controlled room (temperature 23±1° C., humidity 55±5%, 12-hour light/12-hour dark cycle, light cycle begins at 06:00) located in the Laboratory Animal Center of National Cheng Kung University (Tainan, Taiwan) with unrestricted access to food and water. All mice were genotyped using a protocol provided by the Jackson Laboratory. The 3×Tg mice develop intracellular Aβ immuno-positive staining as early as 3-4 months and aggregates of hyperphosphorylated tau in the hippocampus around 12 months of age. Impaired synaptic transmission and long-term potentiation are evident about 6 months of age. At the age of 10 months (body weight, 31˜35 g), five 3×Tg mice received four consecutive weekly injections of Zfra4-10 solution (2 mM in phosphate buffered saline [PBS], 100 μL each injection) from the tail veins. […]\nThe experiment was performed from 6 PM each day. […] The cumulative times spent by the mouse in exploring each of the objects were recorded during a 5-minute period. […] The times spent in exploring each object during a 5-minute period were recorded in either the STM or the LTM test. […]\nAll experimental results were represented as mean±standard error of the mean. The results for novel object recognition test, probe test of Morris water maze, relative ventricle area, and relative optical density of pS412-tau immunoreactivity were analyzed by two-tailed Mann-Whitney test, whereas the Aβ-positive cell number was analyzed by two-tailed unpaired t-test. The Morris water maze learning section results were analyzed using a repeated mixed-model analysis of variance with training session as within-subject factor and the Zfra injection as between-subject factor. […]"}
{"substance": "RRSSSCK [Zfra4-10, truncated zinc finger-like peptide, amino acids 4-10 of Zfra]", "values": [{"measurement": "exploring times of the novel object, short-term memory task", "setting": "3×Tg mice, 2 hours after acquisition, P=0.074", "result": "marginal, but not significant, increase"}, {"measurement": "novel object exploring times, long-term memory task", "setting": "3×Tg mice, 24 hours after acquisition, P=0.008", "result": "significantly higher"}, {"measurement": "exploring times on each object, acquisition phase", "setting": "11-month-old 3×Tg mice, one week after four weekly tail vein injections (2 mM, 100 μL), 5-minute acquisition, P>0.5", "result": "approximately equal exploring times on each object"}]}
